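Cells were grown in 96-well plates and exposed to each compound for 48 hours at five concentrations; endpoints were interpolated linearly between bracketing concentrations, or set to the highest concentration if not reached. GI50: concentration for 50% inhibition of growth.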 Active and inactive are the calls of the source. Cut-off read from the data, not from the text of the source: active = GI50 up to about 1.1 µM and inactive = higher. Bounds are passed on as bounds.

Some test systems named below: Malme-3M; K562; LOX IMVI; HT-29; OVCAR-8; SR; TK-10; NCI-H226; RPMI-8226; OVCAR-3; CCRF-CEM; HCT-15; HCC 2998; MOLT-4; IGROV-1; U-251; SN12C; SNB-19.
Common to all, as to assay: growth of human tumour cells (NCI), 48 h

As for `C/C=C/C=N/N(c1nnc(-c2ccccc2)c(-c2ccccc2)n1)S(=O)(=O)c1ccc(C)cc1`, the GI50 in the assay on Malme-3M was 10.4 µM (inactive); with K562, 6.37 µM (inactive); in the assay on LOX IMVI it was 3.6 µM (inactive); with HT-29, 11.7 µM (inactive); in the assay with OVCAR-8, 5.53 µM (inactive); with SR, 3.48 µM (inactive). Besides, the GI50 in the assay on TK-10 is 14.9 µM (inactive); with NCI-H226, 15.3 µM (inactive); with RPMI-8226 it was 4.19 µM (inactive); in the assay on OVCAR-3, 12.6 µM (inactive); in the assay on CCRF-CEM it was 2.49 µM (inactive); in the assay with HCT-15, 5.14 µM. In addition, the GI50 in the assay on HCC 2998 was 17 µM (inactive); in the assay with MOLT-4 it was 3.18 µM (inactive); in the assay with IGROV-1, 13.1 µM (inactive); in the assay on U-251, 4.04 µM (inactive); in the assay on SN12C, 8.13 µM (inactive).
Regarding `O=C(/C=C/c1ccccc1O)c1cccnc1`, the GI50 in the assay with Malme-3M, with K562, in the assay on LOX IMVI, in the assay on HT-29, with OVCAR-8 and in the assay with SR was > 100 µM (inactive) each time. For the same molecule, the GI50 in the assay on TK-10, in the assay with NCI-H226, in the assay on OVCAR-3, with CCRF-CEM, in the assay on SNB-19 and in the assay on HCC 2998 was > 100 µM (inactive) each time. Further, the GI50 in the assay with MOLT-4, with IGROV-1, in the assay with U-251 and in the assay with SN12C was > 100 µM (inactive) each time.
Take `COc1nc(NC2OCC(OC(C)=O)C(OC(C)=O)C2OC(C)=O)c(/N=C\C=N\c2c(NC3OCC(OC(C)=O)C(OC(C)=O)C3OC(C)=O)nc(OC)n(C)c2=O)c(=O)n1C` (configuration not stated): the GI50 in the assay on Malme-3M, in the assay with K562, in the assay on LOX IMVI, with HT-29, in the assay with OVCAR-8 and in the assay with SR was > 100 µM (inactive) each time. Also, the GI50 is > 100 µM (inactive) in the assay with TK-10; > 100 µM (inactive) in the assay on RPMI-8226; > 100 µM (inactive) in the assay on OVCAR-3; greater than 100 µM with HCT-15; > 100 µM (inactive) with SNB-19; > 100 µM (inactive) in the assay on HCC 2998. For the same molecule, the GI50 in the assay on IGROV-1, with U-251 and in the assay on SN12C was > 100 µM (inactive) throughout.
For `Oc1nc(S)nc2c1CCCN2`, the GI50 was > 100 µM (inactive) in the assay with Malme-3M; > 10 µM (inactive) with K562; > 100 µM (inactive) with LOX IMVI; > 100 µM (inactive) in the assay on HT-29; > 100 µM (inactive) in the assay with OVCAR-8; > 100 µM (inactive) in the assay on SR. Further, the GI50 is > 100 µM (inactive) with TK-10; > 100 µM (inactive) with RPMI-8226; > 100 µM (inactive) in the assay with OVCAR-3; > 100 µM (inactive) in the assay with CCRF-CEM; greater than 100 µM in the assay with HCT-15; > 100 µM (inactive) in the assay with SNB-19. Further, the GI50 with MOLT-4, in the assay on IGROV-1, in the assay on U-251 and in the assay on SN12C was > 100 µM (inactive) in each case.
In the case of `CC(C)=C1CCC(CN(C)C)C1=O` (configuration not stated), the GI50 was 16.3 µM (inactive) with Malme-3M; 6.08 µM (inactive) with K562; 20.6 µM (inactive) in the assay on HT-29; 22.3 µM (inactive) in the assay on OVCAR-8; 12.4 µM (inactive) with SR; 17.1 µM (inactive) with TK-10. Also, the GI50 in the assay on OVCAR-3 is 17.6 µM (inactive); in the assay with CCRF-CEM, 8.95 µM (inactive); in the assay with HCT-15, 14.8 µM; with SNB-19 it was > 100 µM (inactive); with HCC 2998, 19.1 µM (inactive); with MOLT-4, 12.1 µM (inactive). Besides, the GI50 with IGROV-1 was > 100 µM (inactive); in the assay with U-251 it was > 100 µM (inactive); with SN12C, 18.4 µM (inactive).
As for `COC(=O)C1C=NNC1C(=O)OC` (configuration not stated), the GI50 in the assay with Malme-3M, with K562, with LOX IMVI, in the assay with HT-29, in the assay on OVCAR-8 and in the assay with TK-10 was > 100 µM (inactive) in each case. Further, the GI50 in the assay on NCI-H226 was > 100 µM (inactive); with RPMI-8226 it was > 100 µM (inactive); in the assay on OVCAR-3, > 100 µM (inactive); with CCRF-CEM, > 100 µM (inactive); in the assay with HCT-15, greater than 100 µM; with SNB-19, 57.3 µM (inactive). Moreover, the GI50 in the assay on HCC 2998, in the assay with MOLT-4, with IGROV-1, with U-251 and in the assay on SN12C was > 100 µM (inactive) in each case.
With `CN(/N=C/c1ccnc2ccccc12)c1ccc([N+](=O)[O-])cc1[N+](=O)[O-]`, the GI50 was 61 µM (inactive) with Malme-3M; > 100 µM (inactive) in the assay with K562; 81.7 µM (inactive) with LOX IMVI; > 100 µM (inactive) in the assay with HT-29; > 100 µM (inactive) in the assay on OVCAR-8; > 100 µM (inactive) in the assay on TK-10. In addition, the GI50 is > 100 µM (inactive) in the assay on NCI-H226; > 100 µM (inactive) in the assay with RPMI-8226; 19.7 µM (inactive) in the assay with OVCAR-3; > 100 µM (inactive) with CCRF-CEM; greater than 100 µM with HCT-15; 77.4 µM (inactive) with SNB-19. Also, the GI50 in the assay on HCC 2998, with MOLT-4, with IGROV-1, in the assay on U-251 and in the assay with SN12C was > 100 µM (inactive) in each case.
Consider `COc1ccc(C2(Cl)C(Cl)(C(F)(F)F)C2(Cl)C(F)(F)F)cc1` (configuration not stated), for which the GI50 in the assay on K562 was 20.5 µM (inactive); in the assay with LOX IMVI, 6.68 µM (inactive); in the assay with HT-29, 14.4 µM (inactive); in the assay with OVCAR-8, 12.6 µM (inactive); in the assay with SR, 10.2 µM (inactive); with TK-10, 18.1 µM (inactive). Also, the GI50 was 15.5 µM (inactive) in the assay with NCI-H226; 9.64 µM (inactive) in the assay on RPMI-8226; 15.5 µM (inactive) with OVCAR-3; 3.78 µM (inactive) in the assay with CCRF-CEM; 14.2 µM with HCT-15; 15.7 µM (inactive) with SNB-19. Further, the GI50 with HCC 2998 is 16.3 µM (inactive); in the assay on MOLT-4, 2.62 µM (inactive); in the assay with IGROV-1, 16.5 µM (inactive); in the assay with U-251, 14.9 µM (inactive); in the assay on SN12C, 15.8 µM (inactive).
Regarding `CC(=O)Oc1c(Br)ccc2cc(C(Br)Br)c(C(=O)c3ccccc3)nc12`, the GI50 in the assay with Malme-3M was 24.9 µM (inactive); in the assay with K562, 20.2 µM (inactive); with LOX IMVI it was 23.9 µM (inactive); in the assay with HT-29 it was 19.2 µM (inactive); in the assay on OVCAR-8 it was 23.6 µM (inactive); in the assay on SR, 28.1 µM (inactive). For the same molecule, the GI50 with TK-10 was 17.7 µM (inactive); in the assay on NCI-H226 it was 19.7 µM (inactive); with RPMI-8226 it was > 10 µM (inactive); in the assay on OVCAR-3, > 10 µM (inactive); with HCT-15 it was 22.8 µM; in the assay on SNB-19, 19.9 µM (inactive). Moreover, the GI50 is 17.9 µM (inactive) in the assay with HCC 2998; 20.7 µM (inactive) in the assay on MOLT-4; 29.1 µM (inactive) in the assay on IGROV-1; 19.2 µM (inactive) with U-251; 20 µM (inactive) with SN12C.
For `C=C(C)C1CC[C@]2(C(=O)O)CCC3(C)[C@H](CCC4[C@@]5(C)CC[C@H](OC6OC(CO)C(O)C6OC6OC(C)C(O)C(O)C6O)[C@@](C)(CO)C5CC[C@]43C)C12` (some centres not stated), the GI50 in the assay with K562, in the assay with LOX IMVI, with HT-29, in the assay on OVCAR-8, with SR and in the assay with TK-10 was > 100 µM (inactive) throughout. The GI50 in the assay on NCI-H226 is > 100 µM (inactive); in the assay with OVCAR-3, > 100 µM (inactive); in the assay on CCRF-CEM, > 100 µM (inactive); in the assay with HCT-15, greater than 100 µM; in the assay on SNB-19, > 100 µM (inactive); with HCC 2998, > 100 µM (inactive). Further, the GI50 with MOLT-4, in the assay on IGROV-1, in the assay with U-251 and in the assay on SN12C was > 100 µM (inactive) in each case.
Regarding `CC1(O)Oc2ccc3ccccc3c2C=C1C(N)=O` (configuration not stated), the GI50 is > 100 µM (inactive) with K562; > 100 µM (inactive) with LOX IMVI; 46.5 µM (inactive) in the assay with SR; > 100 µM (inactive) in the assay with TK-10; 33.3 µM (inactive) in the assay on RPMI-8226; 86.5 µM (inactive) with CCRF-CEM. Further, the GI50 in the assay with HCT-15 is 53.7 µM; in the assay with SNB-19 it was > 100 µM (inactive); in the assay on HCC 2998, > 100 µM (inactive); in the assay with MOLT-4, 18.6 µM (inactive); in the assay on IGROV-1 it was 79.8 µM (inactive); with U-251 it was > 100 µM (inactive).
`C1CC2=C(C1)C1=S(S2)SC2=C1CCC2`: the GI50 with Malme-3M, in the assay with K562, in the assay on LOX IMVI, in the assay with HT-29, with OVCAR-8 and in the assay with TK-10 was > 100 µM (inactive) each time. Moreover, the GI50 in the assay on NCI-H226 is > 100 µM (inactive); with RPMI-8226, > 100 µM (inactive); with OVCAR-3, > 100 µM (inactive); in the assay on CCRF-CEM it was > 100 µM (inactive); in the assay on HCT-15, greater than 100 µM; with SNB-19, > 100 µM (inactive). Also, the GI50 in the assay on HCC 2998, in the assay on MOLT-4, with IGROV-1, with U-251 and with SN12C was > 100 µM (inactive) each time.
